Earlier results on one molecule are cited in US8053446B2, “Cyanoguanidine compounds” (Leo Pharma A/S, priority 2004, dated 2011).

The subject of one data set is human tumour cells. As to conditions: nude mice transplanted with human tumour cells; also against tumour cells resistant to conventional anticancer drugs such as paclitaxel.
The test system of data set [1] is normal human endothelial cells.

`N#CNC(=Nc1ccncc1)NCCCCCCOc1ccc(Cl)cc1` [N-(6-(4-chlorophenoxy)hexyl)-N′-cyano-N″-(4-pyridyl)guanidine]: the antitumour activity result in the data set with human tumour cells is recorded as “substantial antitumour activity”. Also, the antiproliferative activity entry in data set [1] is on record as “considerably less antiproliferative activity”.
